From article PMC9718554, “Discovery of a fragment hit compound targeting D-Ala:D-Ala ligase of bacterial peptidoglycan biosynthesis” (Journal of Enzyme Inhibition and Medicinal Chemistry, 2022)
≈ marks a conversion by molar mass, not a printed value. Where two headings read alike, the source gives them in different places.

Experiments:
[1] = biological target: T1, E. coli DdlB enzyme (D-alanine:D-alanine ligase) (Escherichia coli, UniProt P07862); test: biochemical; details: for IC50: 700 μM D-Ala, 100 μM ATP, read-out: DdlB inhibition IC50; for remaining activity at 5000 µM: at 5 mM; for remaining activity at 2100 µM: tested concentration 2.1 mM; for remaining activity at 1700 µM: tested concentration 1.7 mM; for remaining activity at 1900 µM: tested concentration 1.9 mM; for remaining activity at 2000 µM: tested concentration 2.0 mM; for remaining activity at 1800 µM: tested concentration 1.8 mM; for remaining activity at 2200 µM: tested concentration 2.2 mM
T1 construct: made in house; host or cells: E. coli

[2] = biological target: E. coli MurA enzyme (UDP-N-acetylglucosamine enolpyruvyl transferase) (Escherichia coli, UniProt P0A749); test: MurA inhibition assay (malachite green, deselection); details: read-out: MurA inhibition, RA (Residual Activity)
Description: Inhibition of the enzyme was determined using an end-point malachite green assay by detecting the orthophosphate formed during the enzymatic reaction. […] The final DMSO concentration was 5%. […] A parallel experiment without the enzyme was performed to detect insoluble compounds under the assay conditions and subtracted from each measurement. All experiments were performed in duplicates. RAs were calculated with respect to blank experiments without tested compounds and with 5% DMSO.

[3] = Solubility at tested concentrations in fragment library screening; format: physicochemical
From the text: (§1) Supplement IENZ_A_2149745_SM2502.zip/DDlB_CDR05_SI_20221103.xlsx, sheet "Fragment library screening" | column: Solubility at tested concentrations

[4] = Solubility at tested concentrations in the fragment library screening; format: physicochemical
From the text: as §1

E. coli D22 = test: MIC by broth microdilution; format: cell-based; details: Escherichia coli, D22, 20 h
Description: (§2) The antibacterial activities of 3 were determined according to the European Committee for […] Susceptibility Testing recommendations and Clinical Laboratory Standards Institute protocol. Compound was tested against reference strains of E. coli and Staphylococcus aureus and against two mutant E. coli strains. E. coli D22 bears a mutation in the LpxC gene that increases membrane permeability, whereas E. coli N43 is an AcrA knockout strain (knockout of the cell membrane pump). […] The most plausible reason is the low on target activity of the hit fragment, however, also the poor penetration into the bacterial cell or efflux pumps effect cannot be ruled out. Although the lack of antibacterial activity is a limitation, hit compound 3 represents a fragment-sized starting point for the development of new compounds with increased DdlB inhibitory potency as well as antibacterial activity.
(§3) Minimum inhibitory concentrations (MICs) for 3 were determined by broth microdilution in Cation-adjusted Mueller-Hinton broth (MH) with TES, TREK Diagnostic Systems Ltd. against S. aureus ATCC 29213, E. coli ATCC 25922, E. coli N43 and E. coli D22. All of the experiments were performed in duplicate in 96-well plate format according to CLSI guidelines and European Committee for Antimicrobial Susceptibility Testing recommendations. The bacterial suspension of a specific bacterial strain was diluted with MH broth to obtain a final inoculum of 5 × 10^5 CFU/mL in the assay. Compound 3 dissolved in DMSO and inoculum were mixed together and incubated for 20 h at 35 °C. After incubation, the minimal inhibitory concentration (MIC) values were determined by visual inspection as the lowest dilution of compounds showing no turbidity. The MICs were determined against S. aureus (ATCC 29213), E. coli (ATCC 25922), E. coli N43, and E. coli D22 bacterial strains. D-Cycloserine was used as a positive control.

E. coli N43 = test: MIC by broth microdilution; format: cell-based; details: Escherichia coli, N43, 20 h
Description: as §2, §3

S. aureus ATCC 29213 = test: MIC by broth microdilution; format: cell-based; details: Staphylococcus aureus, ATCC29213; S. aureus ATCC 29213, 20 h at 35 °C; read-out: MIC
Description: as §2, §3

E. coli ATCC 25922 = test: MIC by broth microdilution; format: cell-based; details: Escherichia coli, ATCC25922; E. coli ATCC 25922, 20 h at 35 °C; read-out: MIC
Description: as §2, §3

[5] = read-out: DdlB inhibition, RA (Residual Activity)
[6] = residual activity, read-out: DdlB RA

Chain of E. coli MurA enzyme (UDP-N-acetylglucosamine enolpyruvyl transferase) (P0A749 whole entry, the tested form may be a part): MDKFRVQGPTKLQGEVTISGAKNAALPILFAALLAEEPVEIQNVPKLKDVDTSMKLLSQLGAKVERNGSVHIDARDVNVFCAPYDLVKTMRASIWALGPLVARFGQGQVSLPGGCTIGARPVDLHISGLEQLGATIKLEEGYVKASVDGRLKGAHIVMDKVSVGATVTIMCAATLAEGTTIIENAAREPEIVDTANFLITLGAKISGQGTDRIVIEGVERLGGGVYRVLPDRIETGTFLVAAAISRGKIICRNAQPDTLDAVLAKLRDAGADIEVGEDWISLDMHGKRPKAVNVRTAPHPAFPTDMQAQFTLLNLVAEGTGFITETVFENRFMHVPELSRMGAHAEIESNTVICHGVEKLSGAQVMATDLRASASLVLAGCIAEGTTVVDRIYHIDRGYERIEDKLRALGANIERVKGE

Structure (SMILES): COc1ccc(-n2c(C)ccc2C)nc1 [Compound 4]
- IC50 [1]: 1790 µM
- remaining activity at 5000 µM [2]: 39%

Structure (SMILES): Cc1noc(C)c1C(=O)NCC1Cn2cccc2CN1C (centres unmarked) [Compound 5]
- remaining activity at 2500 µM ([1]; at 2.5 mM, read-out: DdlB inhibition, RA (Residual Activity)): 28%
- remaining activity at 5000 µM [2]: 6%

Structure (SMILES): CCOc1ccc2c(n1)CCN(C(=O)c1ccccn1)C2 [Compound 6, (2-Ethoxy-7,8-dihydro-1,6-naphthyridin-6(5H)-yl)(pyridin-2-yl)methanone]
- remaining activity at 5000 µM [1, 5]: 25%
- remaining activity at 2100 µM [1, 6]: 44%
- remaining activity at 5000 µM [2]: 104%

Structure (SMILES): Nc1ccc2ncc(C(=O)O)c(O)c2c1 [Compound 7, 6-Amino-4-hydroxyquinoline-3-carboxylic acid]
- remaining activity at 5000 µM [1, 5]: 47%
- remaining activity at 5000 µM [2]: 81%

Structure (SMILES): COCc1cn(C2CNC2)nn1 [Compound 8]
- remaining activity at 5000 µM [1, 5]: 95%
- remaining activity at 5000 µM [2]: 100%

Structure (SMILES): COc1cccc(NC2=NS(=O)(=O)c3ccccc32)c1 [Compound 8005-1580]
- Solubility at tested concentrations ([3]; tested concentration 1.7 mM): not soluble
- remaining activity at 1700 µM [1, 6]: 50%

Structure (SMILES): CN1CCN(S(=O)(=O)c2cccc3cccnc23)CC1 [Compound 8006-7667]
- Solubility at tested concentrations ([3]; tested concentration 2.1 mM): not soluble
- remaining activity at 2100 µM [1, 6]: 60%

Structure (SMILES): OC1CCCc2c1[nH]c1ccc(Br)cc21 (centres unmarked) [Compound 8010-6263]
- Solubility at tested concentrations ([3]; tested concentration 1.9 mM): not soluble
- remaining activity at 1900 µM [1, 6]: 29%

Structure (SMILES): CN(C(=O)c1cc[nH]n1)C1CC(C)(C)N(C)C(C)(C)C1 [Compound 8013-1135]
- Solubility at tested concentrations ([3]; tested concentration 2.0 mM): not soluble
- remaining activity at 2000 µM [1, 6]: -1.26%

Structure (SMILES): O=C1COc2ccccc2N1Cc1ccc2c(c1)OCO2 [Compound 8018-5756]
- Solubility at tested concentrations ([3]; tested concentration 1.8 mM): not soluble
- remaining activity at 1800 µM [1, 6]: 103%

Structure (SMILES): CCc1cc(C(=O)N2CC3(C)CC2CC(C)(C)C3)no1 (centres unmarked) [Compound C226-2780]
- Solubility at tested concentrations ([3]; tested concentration 2.2 mM): not soluble
- remaining activity at 2200 µM [1, 6]: 25%

Structure (SMILES): COC(=O)c1cc2occc2n1Cc1ccccc1Cl [Compound C777-0071]
- Solubility at tested concentrations ([3]; tested concentration 1.7 mM): not soluble
- remaining activity at 1700 µM [1, 6]: 82%

Structure (SMILES): Cc1ccccc1N(C)C(=O)Cc1noc2ccccc12 [Compound E207-0386]
- Solubility at tested concentrations ([3]; tested concentration 2.1 mM): not soluble
- remaining activity at 2100 µM [1, 6]: 102%

Structure (SMILES): O=c1c(NCCN2CCCCCC2)c(-c2ccccc2)c1=O [Compound E470-0490]
- Solubility at tested concentrations ([4]; tested concentration 1.7 mM): not soluble
- remaining activity at 1700 µM ([1]; read-out: DdlB RA): 88%

Structure (SMILES): CCCNc1c(-c2ccc(C(C)C)cc2)c(=O)c1=O [Compound E511-0830]
- Solubility at tested concentrations ([4]; tested concentration 1.9 mM): not soluble
- remaining activity at 1900 µM ([1]; read-out: DdlB RA): 101%

Structure (SMILES): CCc1ccc(C2Nc3ccccc3S(=O)(=O)N2)cc1 (centres unmarked) [Compound F475-0262]
- Solubility at tested concentrations ([3]; tested concentration 2.1 mM): not soluble
- remaining activity at 2100 µM [1, 6]: 68%

Structure (SMILES): Cc1cc2nc(COC(=O)c3ccccc3)cc(=O)n2o1 [Compound G265-0746]
- Solubility at tested concentrations ([4]; tested concentration 1.8 mM): not soluble
- remaining activity at 1800 µM ([1]; read-out: DdlB RA): -1%

Structure (SMILES): CC1c2cccn2CCN1C(=O)Nc1ccccc1Cl (centres unmarked) [Compound G551-0008]
- Solubility at tested concentrations ([3]; tested concentration 1.7 mM): not soluble
- remaining activity at 1700 µM [1, 6]: 112%

Structure (SMILES): O=C(NCCc1ccco1)C1COc2ccccc2C1 (centres unmarked) [Compound G668-0290]
- Solubility at tested concentrations ([3]; tested concentration 2.2 mM): not soluble
- remaining activity at 2200 µM [1, 6]: 70%

Structure (SMILES): O=C(Nc1ccccc1F)NC1COc2ccccc2C1 (centres unmarked) [Compound G765-0058]
- Solubility at tested concentrations ([3]; tested concentration 1.7 mM): not soluble
- remaining activity at 1700 µM [1, 6]: 93%

Structure (SMILES): Cc1ccccc1-n1nnnc1C1(N(C)C)CCCC1 [Compound J034-0206]
- Solubility at tested concentrations ([3]; tested concentration 2.2 mM): not soluble
- remaining activity at 2200 µM [1, 6]: 91%

Structure (SMILES): O=C(O)c1cc(-c2ccc3ccccc3c2)[nH]n1 [Compound R052-2028]
- Solubility at tested concentrations ([4]; tested concentration 2.1 mM): not soluble
- remaining activity at 2100 µM ([1]; read-out: DdlB RA): 50%

Structure (SMILES): Cc1ccc(S(=O)(=O)N(C)CC2CCOC2)c(C)c1 (centres unmarked) [Compound S213-1641]
- Solubility at tested concentrations ([3]; tested concentration 2.1 mM): not soluble
- remaining activity at 2100 µM [1, 6]: 110%

Structure (SMILES): Cc1ccccc1S(=O)(=O)Nc1cnc2c(c1)CCC2 [Compound T157-0058]
- Solubility at tested concentrations ([3]; tested concentration 2.1 mM): not soluble
- remaining activity at 2100 µM [1, 6]: 48%

Structure (SMILES): CC(C)Oc1n[nH]c(-c2ccc(Cl)cc2Cl)n1 [Compound V017-7311]
- Solubility at tested concentrations ([3]; tested concentration 2.2 mM): not soluble
- remaining activity at 2200 µM [1, 6]: 98%

Structure (SMILES): CC(C)(C)OC(=O)NCc1cccc(-c2cncs2)c1 [Compound V029-2538]
- Solubility at tested concentrations ([3]; tested concentration 1.7 mM): not soluble
- remaining activity at 1700 µM [1, 6]: 69%

Structure (SMILES): O=S(=O)(NC1CCCCCC1)c1ccc(F)cc1 [Compound Y030-0828]
- Solubility at tested concentrations ([3]; tested concentration 2.0 mM): not soluble
- remaining activity at 2000 µM [1, 6]: 89%

Structure (SMILES): O=S(=O)(Cc1ccc(Cl)cc1)N1CCOCC1 [Compound Y031-1160]
- Solubility at tested concentrations ([3]; tested concentration 2.2 mM): not soluble
- remaining activity at 2200 µM [1, 6]: 118%

Structure (SMILES): O=C(O)c1cnc2ccc(F)cc2c1O [Compound Y042-3098]
- Solubility at tested concentrations ([4]; tested concentration 2.4 mM): not soluble
- remaining activity at 2400 µM ([1]; tested concentration 2.4 mM, read-out: DdlB RA): 53%

Structure (SMILES): O=C(O)c1cnc2cc(Cl)ccc2c1O [Compound Y042-3116]
- Solubility at tested concentrations ([4]; tested concentration 2.2 mM): not soluble
- remaining activity at 2200 µM ([1]; read-out: DdlB RA): 44%

Structure (SMILES): O=C(O)c1cnc2ccc(OC(F)(F)F)cc2c1O [Compound Y042-3162]
- Solubility at tested concentrations ([3]; tested concentration 1.8 mM): not soluble
- remaining activity at 1800 µM ([1]; fragment library screening, read-out: DdlB RA): -5%

Structure (SMILES): CC1CCN(C(=O)CC2(n3cccc3)CCCCC2)CC1 [Compound Y042-5984]
- Solubility at tested concentrations ([3]; tested concentration 1.7 mM): not soluble
- remaining activity at 1700 µM [1, 6]: 90%

Structure (SMILES): CCCCc1ccc2ncc(C(=O)O)c(O)c2c1 [Compound Y044-2907]
- Solubility at tested concentrations ([4]; tested concentration 2.0 mM): not soluble
- remaining activity at 2000 µM ([1]; read-out: DdlB RA): 85%

Structure (SMILES): NS(=O)(=O)c1ccc(NC(=O)C2CCCC2)cc1 [Compound Y205-5953]
- Solubility at tested concentrations ([4]; tested concentration 1.9 mM): not soluble
- remaining activity at 1900 µM ([1]; read-out: DdlB RA): 62%

Structure (SMILES): Cc1ccc(C)c(S(=O)(=O)N2CCCC(C)C2)c1 (centres unmarked) [Compound Y206-4328]
- Solubility at tested concentrations ([3]; tested concentration 2.2 mM): not soluble
- remaining activity at 2200 µM [1, 6]: 116%

Structure (SMILES): Cc1cccc(CC(=O)Nc2cccc(C(=O)O)c2)c1 [Compound Y206-6127]
- Solubility at tested concentrations ([4]; tested concentration 1.9 mM): not soluble
- remaining activity at 1900 µM ([1]; read-out: DdlB RA): 58%

Structure (SMILES): CC1CCCC(NC(=O)c2ccc(Cl)cc2)C1C (centres unmarked) [Compound Y502-2265]
- Solubility at tested concentrations ([3]; tested concentration 2.3 mM): not soluble
- remaining activity at 2300 µM ([1]; residual activity, tested concentration 2.3 mM, read-out: DdlB RA): 91%

Structure (SMILES): O=C(O)c1cc(-c2ccccc2)nc2c(Cl)cnn12 [Compound Y504-7719]
- Solubility at tested concentrations ([3]; tested concentration 2.2 mM): not soluble
- remaining activity at 2200 µM [1, 6]: 90%

Structure (SMILES): O=C(O)c1cnn2c(-c3ccco3)ccnc12 [Compound Y504-8728]
- Solubility at tested concentrations ([4]; tested concentration 2.2 mM): not soluble
- remaining activity at 2200 µM ([1]; read-out: DdlB RA): 56%

Structure (SMILES): O=S(=O)(c1ccccc1)N1CCOc2ccccc21 [Compound Z606-0391]
- Solubility at tested concentrations ([3]; tested concentration 2.0 mM): not soluble
- remaining activity at 2000 µM [1, 6]: 97%

Structure (SMILES): N[C@@H]1CON=C1O [D-Cyclo-serine, D-Cycloserine, reference compound]
- MIC (E. coli D22): 16 µg/mL (≈ 157 µM)
- MIC (E. coli N43): 32 µg/mL (≈ 313 µM)
- MIC (S. aureus ATCC 29213): 32 µg/mL (≈ 313 µM)
- MIC (E. coli ATCC 25922): 64 µg/mL (≈ 627 µM)
- IC50 [1]: 108 µM
